We go through eight compounds from PubChem BioAssay AID540311 (Sanford-Burnham Center for Chemical Genomics, 2011).

Activity calls are given as the source filed them.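 How the source made its calls: active means mean EC50 at or below 20 µM; inactive means the rest.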

This assay relates to CHO-XBP1 cells, IRE1-XBP1 luciferase reporter luminescence. As to the kind of experiment: IRE1-XBP1 adaptive UPR arm activators, SAR follow-up, CHO-XBP1 cells, luminescence (AID 540311).
In the case of `Cc1nc(Nc2ncccn2)nc2ccccc12`, the EC50 is > 80 µM (inactive).

With `Cc1ccnc(Nc2ncccn2)n1`, the EC50 is > 80 µM (inactive).

In the case of `COc1cc(-c2ccccc2)nc(Nc2nc(C)c3ccccc3n2)n1`, the EC50 was > 80 µM (inactive).

Turning to `Cc1ccnc(Nc2nc(-c3ccccc3)cc(=O)[nH]2)n1`, the EC50 is > 80 µM (inactive).

As for `Cc1cc(-c2ccccc2)nc(Nc2nc(C)c3ccccc3n2)n1`, the EC50 is > 80 µM (inactive).

Consider `Cc1cc(=O)[nH]c(Nc2nc(C)c3ccccc3n2)n1`, for which the EC50 was > 80 µM (inactive).

`Cc1nc(Nc2nccc(-c3ccccc3)n2)nc2ccccc12`: the EC50 was > 80 µM (inactive).

Take `Cc1nc(Nc2nc(-c3ccccc3)cc(=O)[nH]2)nc2ccccc12`: the EC50 was 12.8 µM.

The term EC50 denotes the midpoint of the concentration-response curve.
